Experiments:
hCRTH2 receptor = hCRTH2 receptor (Homo sapiens (Human), UniProt Q9Y5Y4); experiment: hCRTH2 receptor membranes radioligand (3H-PGD2) displacement assay; format: binding; conditions: 3H-PGD2 radioligand displacement, HEK293-hCRTH2 membranes
Procedure, shortened: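 Compound was first mixed with buffer, then 3H-PGD2 was added at 2.5 nM, and the reaction was started with hCRTH2 membranes from HEK293 cells at 20 μg/well. After 90 min at room temperature, mixtures were filtered and washed with ice-cold buffer, and retained radioactivity was counted.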

eosinophils = experiment: Eosinophil shape change assay with human plasma; format: cell-based; conditions: Homo sapiens, Eosinophil, human plasma (50%), PGD2 100 nM activation, antagonistic activity
Procedure, shortened: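 Human polymorphonuclear cells stained with anti-CD49d-APC, combined with compound-preincubated human plasma (50% of final volume, 4×10^6 cells/ml) for 10 min at 37° C., then stimulated 5 min with 100 nM PGD2 and fixed. Flow cytometry scored percent eosinophils with increased forward scatter.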

Sequence of hCRTH2 receptor (Q9Y5Y4 whole entry): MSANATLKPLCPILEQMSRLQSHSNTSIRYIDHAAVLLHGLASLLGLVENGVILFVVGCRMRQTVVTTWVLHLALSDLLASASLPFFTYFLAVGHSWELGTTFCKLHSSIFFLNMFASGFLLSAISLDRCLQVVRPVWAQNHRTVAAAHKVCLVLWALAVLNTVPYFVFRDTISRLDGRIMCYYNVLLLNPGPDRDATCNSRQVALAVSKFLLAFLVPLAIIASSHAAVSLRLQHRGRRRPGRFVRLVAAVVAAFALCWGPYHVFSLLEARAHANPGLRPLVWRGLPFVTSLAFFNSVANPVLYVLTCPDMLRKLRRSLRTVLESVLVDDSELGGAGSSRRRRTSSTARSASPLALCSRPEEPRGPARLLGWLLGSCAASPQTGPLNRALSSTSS

Row | Structure (SMILES) | IC50 (hCRTH2 receptor) [nM] | IC50 (eosinophils) [nM]
1 | COc1ccc(CC(=O)O)cc1-c1ccc(F)c2c1CN(C(=O)[C@@H]1C[C@H]1c1ccc(F)cc1)CC2 (racemic) [Example 1, (±)-(3-{5-Fluoro-2-[trans-2-(4-fluoro-phenyl)-cyclopropanecarbonyl]-1,2,3,4-tetrahydro-isoquinolin-8-yl}-4-methoxy-phenyl)-acetic acid] | 1.99 | 8
2 | CCOc1cc(CC(=O)O)ccc1-c1ccc(F)c2c1CN(C(=O)CC1OCCc3ccccc31)CC2 (racemic) [Example 229] | 0.7 | 15
3 | CCOc1cc(CC(=O)O)ccc1-c1ccc(F)c2c1CN(C(=O)OCc1ccccc1)CC2 [Example 410, 8-(4-Carboxymethyl-2-ethoxy-phenyl)-5-fluoro-3,4-dihydro-1H-isoquinoline-2-carboxylic acid benzyl ester] | 26 | 13
4 | CC(C)(C)Oc1ccc(CC(=O)O)cc1-c1ccc(F)c2c1CN(C(=O)OCc1ccccc1)CC2 [Example 419, 8-(2-tert-Butoxy-5-carboxymethyl-phenyl)-5-fluoro-3,4-dihydro-1H-isoquinoline-2-carboxylic acid benzyl ester] | 2.8 | 35
5 | COc1ccc(CC(=O)O)cc1-c1ccc(F)c2c1CN(C(=O)CC1CCc3ccccc31)CC2 (racemic) [Example 261] | 3.1 | 86
6 | CCOc1ccc(CC(=O)O)cc1-c1ccc(F)c2c1CN(C(=O)CCc1ccccn1)CC2 [Example 348, {4-Ethoxy-3-[5-fluoro-2-(3-pyridin-2-yl-propionyl)-1,2,3,4-tetrahydro-isoquinolin-8-yl]-phenyl}-acetic acid] | 2.7 | 16
7 | COc1ccc(CC(=O)O)cc1-c1ccc(F)c2c1CN(C(=O)CC1CCCc3ccccc31)CC2 (racemic) [Example 263] | 4.9 | 64

More lines, in order of falling IC50 (hCRTH2 receptor), values ahead:

Row | IC50 (hCRTH2 receptor) [nM] | IC50 (eosinophils) [nM] | Structure (SMILES)
8 | 11.7 | 153 | COc1ccc(CC(=O)O)cc1-c1ccc(F)c2c1CN(C(=O)OCc1ccccc1)CC2 [Example 157, 8-(5-Carboxymethyl-2-methoxy-phenyl)-5-fluoro-3,4-dihydro-1H-isoquinoline-2-carboxylic acid benzyl ester]
9 | 5.42 | 908 | COc1ccc(CC(=O)O)cc1-c1ccc(F)c2c1CN(C(=O)OCc1cccc(F)c1)CC2 [Example 138, 8-(5-Carboxymethyl-2-methoxy-phenyl)-5-fluoro-3,4-dihydro-1H-isoquinoline-2-carboxylic acid 3-fluoro-benzyl ester]
10 | 3.9 | 32 | CCOc1ccc(CC(=O)O)cc1-c1ccc(F)c2c1CN(C(=O)OCc1cnccn1)CC2 [Example 365, 8-(5-Carboxymethyl-2-ethoxy-phenyl)-5-fluoro-3,4-dihydro-1H-isoquinoline-2-carboxylic acid pyrazin-2-ylmethyl ester]
11 | 2.47 | 170 | O=C(O)COc1ccc(OC(F)(F)F)c(-c2ccc(F)c3c2CN(C(=O)OCc2ccccc2)CC3)c1 [Example 162, 8-(5-Carboxymethoxy-2-trifluoromethoxy-phenyl)-5-fluoro-3,4-dihydro-1H-isoquinoline-2-carboxylic acid benzyl ester]
12 | 1.8 | 47 | O=C(O)Cc1ccc(OC(F)F)c(-c2ccc(F)c3c2CN(C(=O)OCc2ccccc2)CC3)c1 [Example 412, 8-(5-Carboxymethyl-2-difluoromethoxy-phenyl)-5-fluoro-3,4-dihydro-1H-isoquinoline-2-carboxylic acid benzyl ester]
13 | 0.49 | 19 | COCCOc1ccc(CC(=O)O)cc1-c1ccc(F)c2c1CN(C(=O)OCc1ccccc1)CC2 [Example 199, 8-[5-Carboxymethyl-2-(2-methoxy-ethoxy)-phenyl]-5-fluoro-3,4-dihydro-1H-isoquinoline-2-carboxylic acid benzyl ester]

Source: US9255090B2, “Heterocyclyl derivatives and their use as prostaglandin D2 receptor modulators” (Actelion Pharmaceuticals Ltd., priority 2012, dated 2016)
